This series can be described thus: Absorbance of Dye A vs cyanine dye Cy7 (diode array spectrophotometer). Type of series: physicochemical. The settings on record: 2.5 μM solution, DMSO diluted in PBS. Here is the method:
(a) Absorbance and fluorescence of Dye A vs Cyanine Dye Cy7.
0.1 to 0.2 mg vials of the dyes were dissolved initially in 100 μl DMSO and then diluted in PBS to the specified concentrations. Absorbance measurements were performed on 2.5 μM solutions, with a HP 8452A Diode array spectrophotometer. Fluorescence measurements were performed on 250 nM solutions, with a Varian Cary Eclipse Fluorescence Spectrophotometer at standardised instrument settings (600V PMT setting).

On to `CN1C2=C/C(=C/C=C/C3=CC4=[N+](C)c5ccccc5C4(C)C(C)(C)C3)CC(C)(C)C2(C)c2ccccc21` (centres unmarked) [Dye A, 4,4,4a,9-Tetramethyl-2-(3-(1E-4,4,4a,9-tetramethyl-4,4a-dihydro-3H-carbazol-2-ylidenyl)prop-1-enyl)-4,4a-dihydro-3H-carbazolium iodide], for which the “measured absorbance equates to (molar extinction)” value (at 746 nm) is recorded as 260,000 /M/cm.

For `CCN1C(=CC=CC=CC=CC2=[N+](CCCCCC(=O)O)c3ccc(S(=O)(=O)O)cc3C2(C)C)C(C)(C)c2cc(S(=O)(=O)[O-])ccc21` [Cy7], the “measured absorbance equates to (molar extinction)” value (at 748 nm) is 250,000 /M/cm.

The values are drawn from patent US20110280806A1, “DYE CONJUGATE IMAGING AGENTS” (priority 2008, published 2011).
